# Source: ChEMBL document CHEMBL1201862, “PubChem BioAssay data set” (2004)
#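 1) Cells in 96-well plates. 2) Compound, 48 h, 5 concentrations. 3) Linear interpolation between surrounding doses. 4) Unreached endpoint = highest concentration. At the GI50, growth is halved.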 Active and inactive are the calls of the source. Rule as the data show it: active = GI50 up to about 1.1 µM and inactive = higher. Residues, ends and D or L forms follow the SMILES beside them.
# Tests used:
# Experiment in all cases: DTP human tumour cell line panel, 48 h
# SR = tested on: SR
# MDA-MB-435 = tested on: MDA-MB-435
# HOP-62 = tested on: HOP-62
# SNB-19 = tested on: SNB-19
# OVCAR-8 = tested on: OVCAR-8
# PC-3 = tested on: PC-3
# HOP-92 = tested on: HOP-92
# NCI-H522 = tested on: NCI-H522
# Malme-3M = tested on: Malme-3M
# MOLT-4 = tested on: MOLT-4
# SK-MEL-28 = tested on: SK-MEL-28
# UO-31 = tested on: UO-31
# BT-549 = tested on: BT-549
# CAKI-1 = tested on: CAKI-1
# U-251 = tested on: U-251
# RPMI-8226 = tested on: RPMI-8226
# COLO 205 = tested on: COLO 205
# CCRF-CEM = tested on: CCRF-CEM
# K562 = tested on: K562
# NCI/ADR-RES = tested on: NCI/ADR-RES
# SN12C = tested on: SN12C
# SW-620 = tested on: SW-620
# OVCAR-4 = tested on: OVCAR-4
# MDA-MB-231 = tested on: MDA-MB-231
# UACC-257 = tested on: UACC-257
# NCI-H460 = tested on: NCI-H460
# 786-0 = tested on: 786-0
# KM12 = tested on: KM12
# ACHN = tested on: ACHN
# MDA-N = tested on: MDA-N
# EKVX = tested on: EKVX
# LOX IMVI = tested on: LOX IMVI
# HT-29 = tested on: HT-29
# A498 = tested on: A498
# NCI-H226 = tested on: NCI-H226
# Hs-578T = tested on: Hs-578T
# SNB-75 = tested on: SNB-75
# SF-268 = tested on: SF-268
# HCT-15 = tested on: HCT-15
# OVCAR-3 = tested on: OVCAR-3
# T47D = tested on: T47D
# IGROV-1 = tested on: IGROV-1
# TK-10 = tested on: TK-10
# SK-MEL-5 = tested on: SK-MEL-5
# SK-MEL-2 = tested on: SK-MEL-2
# UACC-62 = tested on: UACC-62
# DU-145 = tested on: DU-145
# HCT-116 = tested on: HCT-116
# SF-295 = tested on: SF-295
# HCC 2998 = tested on: HCC 2998
# HL-60 = tested on: HL-60
# M14 = tested on: M14
# NCI-H23 = tested on: NCI-H23
# OVCAR-5 = tested on: OVCAR-5
# SK-OV-3 = tested on: SK-OV-3
# MCF7 = tested on: MCF7
# SF-539 = tested on: SF-539
# RXF 393 = tested on: RXF 393
# A549 = tested on: A549
smiles,measurement,setting,value
O=C(/C=C/c1ccc2c(c1)OCO2)c1ccccc(=O)c1O,GI50,SR,> 100 µM (inactive)
same,GI50,MDA-MB-435,13.9 µM (inactive)
same,GI50,HOP-62,20.9 µM (inactive)
same,GI50,SNB-19,8.71 µM (inactive)
same,GI50,OVCAR-8,4.3 µM (inactive)
same,GI50,PC-3,21.5 µM (inactive)
same,GI50,HOP-92,13.7 µM (inactive)
same,GI50,NCI-H522,9.62 µM (inactive)
same,GI50,Malme-3M,23.3 µM (inactive)
same,GI50,MOLT-4,6.27 µM (inactive)
same,GI50,SK-MEL-28,21.2 µM (inactive)
same,GI50,UO-31,13.6 µM (inactive)
same,GI50,BT-549,15.7 µM (inactive)
same,GI50,CAKI-1,5.98 µM (inactive)
same,GI50,U-251,15.9 µM (inactive)
same,GI50,RPMI-8226,7.14 µM (inactive)
same,GI50,COLO 205,4.94 µM (inactive)
same,GI50,CCRF-CEM,0.0376 µM (active)
same,GI50,K562,6.84 µM (inactive)
same,GI50,NCI/ADR-RES,2.08 µM (inactive)
same,GI50,SN12C,21.7 µM (inactive)
same,GI50,SW-620,12 µM (inactive)
same,GI50,OVCAR-4,26.5 µM (inactive)
same,GI50,MDA-MB-231,37.9 µM (inactive)
same,GI50,UACC-257,17.9 µM (inactive)
same,GI50,NCI-H460,3.28 µM (inactive)
same,GI50,786-0,8.32 µM (inactive)
same,GI50,KM12,8.43 µM (inactive)
same,GI50,ACHN,8.24 µM (inactive)
same,GI50,MDA-N,16.4 µM (inactive)
same,GI50,EKVX,20.7 µM (inactive)
same,GI50,LOX IMVI,19.9 µM (inactive)
same,GI50,HT-29,9.51 µM (inactive)
same,GI50,A498,29.9 µM (inactive)
same,GI50,NCI-H226,35.6 µM (inactive)
same,GI50,Hs-578T,7.8 µM (inactive)
same,GI50,SNB-75,12.3 µM (inactive)
same,GI50,SF-268,3.42 µM (inactive)
same,GI50,HCT-15,3.85 µM
same,GI50,OVCAR-3,10.7 µM (inactive)
same,GI50,T47D,20.9 µM (inactive)
same,GI50,IGROV-1,5.77 µM (inactive)
same,GI50,TK-10,18.8 µM (inactive)
same,GI50,SK-MEL-5,7.66 µM (inactive)
same,GI50,SK-MEL-2,20.8 µM (inactive)
same,GI50,UACC-62,7.73 µM (inactive)
same,GI50,DU-145,17.3 µM (inactive)
same,GI50,HCT-116,6.05 µM (inactive)
N#Cc1c(C#N)c(-c2ccco2)n(-c2ccccc2)c1N,GI50,SR,98.2 µM (inactive)
same,GI50,MDA-MB-435,> 100 µM (inactive)
same,GI50,HOP-62,> 100 µM (inactive)
same,GI50,SNB-19,39.2 µM (inactive)
same,GI50,OVCAR-8,22.6 µM (inactive)
same,GI50,PC-3,> 100 µM (inactive)
same,GI50,HOP-92,49.8 µM (inactive)
same,GI50,NCI-H522,> 100 µM (inactive)
same,GI50,Malme-3M,> 100 µM (inactive)
same,GI50,SF-295,> 100 µM (inactive)
same,GI50,MOLT-4,> 100 µM (inactive)
same,GI50,UO-31,> 100 µM (inactive)
same,GI50,HCC 2998,> 100 µM (inactive)
same,GI50,BT-549,40.1 µM (inactive)
same,GI50,CAKI-1,> 100 µM (inactive)
same,GI50,U-251,35.5 µM (inactive)
same,GI50,RPMI-8226,> 100 µM (inactive)
same,GI50,COLO 205,> 100 µM (inactive)
same,GI50,CCRF-CEM,> 100 µM (inactive)
same,GI50,K562,> 100 µM (inactive)
same,GI50,HL-60,> 100 µM (inactive)
same,GI50,NCI/ADR-RES,31.8 µM (inactive)
same,GI50,SN12C,> 100 µM (inactive)
same,GI50,SW-620,> 100 µM (inactive)
same,GI50,M14,> 100 µM (inactive)
same,GI50,OVCAR-4,> 100 µM (inactive)
same,GI50,MDA-MB-231,31.7 µM (inactive)
same,GI50,UACC-257,> 100 µM (inactive)
same,GI50,786-0,83.4 µM (inactive)
same,GI50,NCI-H23,> 100 µM (inactive)
same,GI50,KM12,> 100 µM (inactive)
same,GI50,ACHN,> 100 µM (inactive)
same,GI50,MDA-N,> 100 µM (inactive)
same,GI50,EKVX,45 µM (inactive)
same,GI50,OVCAR-5,> 100 µM (inactive)
same,GI50,SK-OV-3,94.4 µM (inactive)
same,GI50,MCF7,5.94 µM (inactive)
same,GI50,LOX IMVI,> 100 µM (inactive)
same,GI50,HT-29,> 100 µM (inactive)
same,GI50,A498,> 100 µM (inactive)
same,GI50,NCI-H226,29.5 µM (inactive)
same,GI50,SF-539,38.5 µM (inactive)
same,GI50,SNB-75,26.5 µM (inactive)
same,GI50,SF-268,51.9 µM (inactive)
same,GI50,HCT-15,> 100 µM
same,GI50,OVCAR-3,> 100 µM (inactive)
same,GI50,T47D,11.7 µM (inactive)
same,GI50,IGROV-1,> 100 µM (inactive)
same,GI50,TK-10,> 100 µM (inactive)
same,GI50,RXF 393,> 100 µM (inactive)
same,GI50,SK-MEL-5,> 100 µM (inactive)
same,GI50,SK-MEL-2,> 100 µM (inactive)
same,GI50,UACC-62,> 100 µM (inactive)
same,GI50,DU-145,> 100 µM (inactive)
same,GI50,HCT-116,> 100 µM (inactive)
same,GI50,A549,59.2 µM (inactive)
CC(=O)NC(CO)C(=O)NC(Cc1ccc(O)cc1)C(=O)NCC(N)=O (stereo not drawn) (Ac-Ser-Tyr-Gly-NH2; configuration not given here),GI50,SR,> 100 µM (inactive)
same,GI50,MDA-MB-435,> 100 µM (inactive)
same,GI50,HOP-62,> 100 µM (inactive)
same,GI50,SNB-19,> 100 µM (inactive)
same,GI50,OVCAR-8,> 100 µM (inactive)
same,GI50,PC-3,> 100 µM (inactive)
same,GI50,HOP-92,> 100 µM (inactive)
same,GI50,NCI-H522,74.5 µM (inactive)
same,GI50,Malme-3M,> 100 µM (inactive)
same,GI50,SF-295,> 100 µM (inactive)
same,GI50,MOLT-4,> 100 µM (inactive)
same,GI50,SK-MEL-28,> 100 µM (inactive)
same,GI50,UO-31,> 100 µM (inactive)
same,GI50,HCC 2998,> 100 µM (inactive)
same,GI50,BT-549,> 100 µM (inactive)
same,GI50,CAKI-1,> 100 µM (inactive)
same,GI50,U-251,> 100 µM (inactive)
same,GI50,RPMI-8226,> 100 µM (inactive)
same,GI50,COLO 205,> 100 µM (inactive)
same,GI50,CCRF-CEM,> 100 µM (inactive)
same,GI50,K562,> 100 µM (inactive)
same,GI50,HL-60,> 100 µM (inactive)
same,GI50,NCI/ADR-RES,> 100 µM (inactive)
same,GI50,SN12C,> 100 µM (inactive)
same,GI50,SW-620,> 100 µM (inactive)
same,GI50,M14,> 100 µM (inactive)
same,GI50,OVCAR-4,> 100 µM (inactive)
same,GI50,MDA-MB-231,> 100 µM (inactive)
same,GI50,UACC-257,> 100 µM (inactive)
same,GI50,NCI-H460,> 100 µM (inactive)
same,GI50,786-0,> 100 µM (inactive)
same,GI50,NCI-H23,> 100 µM (inactive)
same,GI50,KM12,> 100 µM (inactive)
same,GI50,ACHN,> 100 µM (inactive)
same,GI50,MDA-N,> 100 µM (inactive)
same,GI50,EKVX,> 100 µM (inactive)
same,GI50,OVCAR-5,> 100 µM (inactive)
same,GI50,SK-OV-3,> 100 µM (inactive)
same,GI50,MCF7,> 100 µM (inactive)
same,GI50,LOX IMVI,> 100 µM (inactive)
same,GI50,HT-29,> 100 µM (inactive)
same,GI50,A498,> 100 µM (inactive)
same,GI50,NCI-H226,> 100 µM (inactive)
same,GI50,SF-539,> 100 µM (inactive)
same,GI50,SNB-75,> 100 µM (inactive)
same,GI50,SF-268,> 100 µM (inactive)
same,GI50,HCT-15,> 100 µM
same,GI50,OVCAR-3,> 100 µM (inactive)
same,GI50,T47D,> 100 µM (inactive)
same,GI50,IGROV-1,> 100 µM (inactive)
same,GI50,TK-10,> 100 µM (inactive)
same,GI50,RXF 393,> 100 µM (inactive)
same,GI50,SK-MEL-5,> 100 µM (inactive)
same,GI50,SK-MEL-2,> 100 µM (inactive)
same,GI50,UACC-62,> 100 µM (inactive)
same,GI50,DU-145,> 100 µM (inactive)
same,GI50,HCT-116,> 100 µM (inactive)
same,GI50,A549,> 100 µM (inactive)
